From patent US7928103B2, “Compounds which modulate the CB2 receptor” (Boehringer Ingelheim International GmbH, priority 2006, dated 2011)

Columns and labels:
human CB2R [1] = molecular target: T1, human CB2R (Homo sapiens, UniProt P34972); experiment: Human CB2 receptor binding (3H-CP55940 competition, SPA); set-up: purchased Perkin Elmer Life and Analytical Sciences; host or cells: HEK293 EBNA cells, stably transfected; conditions: through the use of the above described assays (CB1/CB2 binding, CB2R and CB1R cAMP); assay not specified further
Description: A. Human CB1 and CB2 Receptor Binding:
CB2 membranes were purchased and made from HEK293 EBNA cells stably transfected with human CB2 receptor cDNA (Perkin Elmer Life and Analytical Sciences). CB1 membranes were isolated from HEK cells stably co-transfected with human CB1 receptor and Gα16 cDNA's. The membrane preparation was bound to scintillation beads (Ysi-Poly-L-lysine SPA beads, GE Healthcare) for 4 hours at room temperature in assay buffer containing 50 mM Tris, pH 7.5, 2.5 mM EDTA, 5 mM MgCl2, 0.8% fatty acid free Bovine Serum Albumin. Unbound membrane was removed by washing in assay buffer. Membrane-bead mixture was added to 96-well assay plates in the amounts of 15 ug membrane per well (CB2) or 2.5 ug per well (CB1) and 1 mg SPA bead per well. Compounds were added to the membrane-bead mixture in dose-response concentrations ranging from 1×10^−5 M to 1×10^−10 M with 0.25% DMSO, final. The competition reaction was initiated with the addition of ^3H-CP55940 (Perkin Elmer Life and Analytical Sciences) at a final concentration of 1.5 nM (CB2) or 2.5 nM (CB1). The reaction was incubated at room temperature for 18 hours and read on TopCount NXT plate reader. Total and non-specific binding was determined in the absence and presence of 1.25 uM Win 55212 (Sigma). IC50 values for each compound were calculated as the concentration of compound that inhibits the specific binding of the radioactively labeled ligand to the receptor by 50% using the XLFit 4.1 four parameter logistic model. IC50 values were converted to inhibition constant (Ki) values using Cheng-Prusoff equation.

human CB2R [2] = molecular target: T1, human CB2R; experiment: CB2R mediated modulation of cAMP synthesis; format: cell-based; set-up: host or cells: CHO cells; conditions: agonists decrease forskolin induced production of cAMP; CHO cells expressing human CB2R
Description: B. CB2R Mediated Modulation of cAMP Synthesis:
Compounds of the invention were evaluated for their CB2 agonist or inverse agonistic activity in accordance with the following experimental method.
CHO cells expressing human CB2R (Euroscreen) were plated at a density of 5000 cells per well in 384 well plates and incubated overnight at 37° C. After removing the media, the cells were treated with test compounds diluted in stimulation buffer containing 1 mM IBMX, 0.25% BSA and 10 uM Forskolin. The assay was incubated for 30 minutes at 37° C. Cells were lysed and the cAMP concentration was measured using DiscoverX-XS cAMP kit, following the manufacturer's protocol. In this setting, agonists will decrease forskolin induced production of cAMP while inverse agonists will further increase forskolin induced production of cAMP. EC50 of agonists were calculated as follows. The maximal amount of cAMP produced by forskolin compared to the level of cAMP inhibited by 1 uM CP55940 is defined as 100%. The EC50 value of each test compound was determined as the concentration at which 50% of the forskolin-stimulated cAMP synthesis was inhibited. Data was analyzed using a four-parameter logistic model. (Model 205 of XLfit 4.0).

T1 sequence (P34972 whole entry): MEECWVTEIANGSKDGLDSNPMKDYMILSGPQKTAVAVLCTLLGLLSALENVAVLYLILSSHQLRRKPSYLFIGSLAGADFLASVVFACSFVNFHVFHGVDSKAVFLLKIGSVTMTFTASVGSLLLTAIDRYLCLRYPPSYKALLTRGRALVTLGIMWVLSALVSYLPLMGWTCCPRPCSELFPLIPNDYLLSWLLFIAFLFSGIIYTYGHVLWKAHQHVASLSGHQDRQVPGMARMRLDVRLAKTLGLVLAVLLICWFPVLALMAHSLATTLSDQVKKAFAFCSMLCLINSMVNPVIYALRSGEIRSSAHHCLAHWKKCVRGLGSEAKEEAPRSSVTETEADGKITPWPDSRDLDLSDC

Row | SMILES | found to exhibit activity (human CB2R [1]) | found to exhibit agonistic activity (human CB2R [2])
1 | CC(C)(C)c1cc(Nc2ccc(CN3CCO[C@@H](c4ccccc4)C3)cn2)no1 [Example 1, (5-tert-Butyl-isoxazol-3-yl)-[5-((S)-2-phenyl-morpholin-4-ylmethyl)-pyridin-2-yl]-amine] | exhibit activity | exhibit agonistic activity
2 | COc1ccc(Nc2ccc(CN3CCO[C@@H](c4ccccc4)C3)cn2)cc1 [Example 2, (4-Methoxy-phenyl)-[5-((S)-2-phenyl-morpholin-4-ylmethyl)-pyridin-2-yl]-amine] | exhibit activity | exhibit agonistic activity
3 | CCOc1ccc(Nc2ccc(CN3CCO[C@@H](c4ccccc4)C3)cn2)cc1 [Example 3, (4-Ethoxy-phenyl)-[5-((S)-2-phenyl-morpholin-4-ylmethyl)-pyridin-2-yl]-amine] | exhibit activity | exhibit agonistic activity
4 | FC(F)(F)Oc1ccc(Nc2ccc(CN3CCO[C@@H](c4ccccc4)C3)cn2)cc1 [Example 4, [5-((S)-2-Phenyl-morpholin-4-ylmethyl)-pyridin-2-yl]-(4-trifluoromethoxy-phenyl)-amine] | exhibit activity | exhibit agonistic activity
5 | CCc1ccc(Nc2ccc(CN3CCO[C@@H](c4ccccc4)C3)cn2)cc1 [Example 5, (4-Ethyl-phenyl)-[5-((S)-2-phenyl-morpholin-4-ylmethyl)-pyridin-2-yl]-amine] | exhibit activity | exhibit agonistic activity
6 | c1ccc([C@H]2CN(Cc3ccc(Nc4cccc5ccccc45)nc3)CCO2)cc1 [Example 6, Naphthalen-1-yl-[5-((S)-2-phenyl-morpholin-4-ylmethyl)-pyridin-2-yl]-amine] | exhibit activity | exhibit agonistic activity
7 | c1ccc([C@H]2CN(Cc3ccc(Nc4ccc5ccccc5c4)nc3)CCO2)cc1 [Example 7, Naphthalen-2-yl-[5-((S)-2-phenyl-morpholin-4-ylmethyl)-pyridin-2-yl]-amine] | exhibit activity | exhibit agonistic activity
8 | c1ccc([C@H]2CN(Cc3ccc(Nc4ccncn4)nc3)CCO2)cc1 [Example 8, [5-((S)-2-Phenyl-morpholin-4-ylmethyl)-pyridin-2-yl]-pyrimidin-4-yl-amine] | exhibit activity | exhibit agonistic activity
9 | c1ccc([C@H]2CN(Cc3ccc(Nc4cccnc4)nc3)CCO2)cc1 [Example 9, [5-((S)-2-Phenyl-morpholin-4-ylmethyl)-pyridin-2-yl]-pyridin-3-yl-amine] | exhibit activity | exhibit agonistic activity
10 | c1ccc([C@H]2CN(Cc3ccc(Nc4ccncc4)nc3)CCO2)cc1 [Example 10, [5-((S)-2-Phenyl-morpholin-4-ylmethyl)-pyridin-2-yl]-pyridin-4-yl-amine] | exhibit activity | exhibit agonistic activity
11 | c1ccc([C@H]2CN(Cc3ccc(Nc4cnc5ccccc5c4)nc3)CCO2)cc1 [Example 11, [5-((S)-2-Phenyl-morpholin-4-ylmethyl)-pyridin-2-yl]-quinolin-3-yl-amine] | exhibit activity | exhibit agonistic activity
12 | c1ccc([C@H]2CN(Cc3ccc(Nc4cccc5ncccc45)nc3)CCO2)cc1 [Example 12, [5-((S)-2-Phenyl-morpholin-4-ylmethyl)-pyridin-2-yl]-quinolin-5-yl-amine] | exhibit activity | exhibit agonistic activity
13 | c1ccc([C@H]2CN(Cc3ccc(Nc4cccc5cccnc45)nc3)CCO2)cc1 [Example 13, [5-((S)-2-Phenyl-morpholin-4-ylmethyl)-pyridin-2-yl]-quinolin-8-yl-amine] | exhibit activity | exhibit agonistic activity
14 | c1ccc([C@H]2CN(Cc3ccc(Nc4cccc5cnccc45)nc3)CCO2)cc1 [Example 14, Isoquinolin-5-yl-[5-((S)-2-phenyl-morpholin-4-ylmethyl)-pyridin-2-yl]-amine] | exhibit activity | exhibit agonistic activity
15 | c1ccc(Nc2ccc(CN3CCO[C@@H](c4ccccc4)C3)cn2)cc1 [Example 15, Phenyl-[5-((S)-2-phenyl-morpholin-4-ylmethyl)-pyridin-2-yl]-amine] | exhibit activity | exhibit agonistic activity
16 | Fc1ccccc1Nc1ccc(CN2CCO[C@@H](c3ccccc3)C2)cn1 [Example 16, (2-Fluoro-phenyl)-[5-((S)-2-phenyl-morpholin-4-ylmethyl)-pyridin-2-yl]-amine] | exhibit activity | exhibit agonistic activity
17 | Clc1ccccc1Nc1ccc(CN2CCO[C@@H](c3ccccc3)C2)cn1 [Example 17, (2-Chloro-phenyl)-[5-((S)-2-phenyl-morpholin-4-ylmethyl)-pyridin-2-yl]-amine] | exhibit activity | exhibit agonistic activity
18 | Clc1cccc(Nc2ccc(CN3CCO[C@@H](c4ccccc4)C3)cn2)c1Cl [Example 18, (2,3-Dichloro-phenyl)-[5-((S)-2-phenyl-morpholin-4-ylmethyl)-pyridin-2-yl]-amine] | exhibit activity | exhibit agonistic activity
19 | Clc1ccc(Nc2ccc(CN3CCO[C@@H](c4ccccc4)C3)cn2)c(Cl)c1 [Example 19, (2,4-Dichloro-phenyl)-[5-((S)-2-phenyl-morpholin-4-ylmethyl)-pyridin-2-yl]-amine] | exhibit activity | exhibit agonistic activity
20 | Clc1ccc(Cl)c(Nc2ccc(CN3CCO[C@@H](c4ccccc4)C3)cn2)c1 [Example 20, (2,5-Dichloro-phenyl)-[5-((S)-2-phenyl-morpholin-4-ylmethyl)-pyridin-2-yl]-amine] | exhibit activity | exhibit agonistic activity
21 | COc1ccccc1Nc1ccc(CN2CCO[C@@H](c3ccccc3)C2)cn1 [Example 21, (2-Methoxy-phenyl)-[5-((S)-2-phenyl-morpholin-4-ylmethyl)-pyridin-2-yl]-amine] | exhibit activity | exhibit agonistic activity
22 | CCOc1ccccc1Nc1ccc(CN2CCO[C@@H](c3ccccc3)C2)cn1 [Example 22, (2-Ethoxy-phenyl)-[5-((S)-2-phenyl-morpholin-4-ylmethyl)-pyridin-2-yl]-amine] | exhibit activity | exhibit agonistic activity
23 | CC(C)c1ccccc1Nc1ccc(CN2CCO[C@@H](c3ccccc3)C2)cn1 [Example 23, (2-Isopropyl-phenyl)-[5-((S)-2-phenyl-morpholin-4-ylmethyl)-pyridin-2-yl]-amine] | exhibit activity | exhibit agonistic activity
